{"source": "paper PMC5152921", "about": "“Evolutionary and Functional Diversification of the Vitamin D Receptor-Lithocholic Acid Partnership” (PLoS ONE, 2016)", "target": "T1, Skate VDR (Leucoraja erinacea, UniProt A0A088GDQ7)", "T1 sequence (A0A088GDQ7 1-434)": "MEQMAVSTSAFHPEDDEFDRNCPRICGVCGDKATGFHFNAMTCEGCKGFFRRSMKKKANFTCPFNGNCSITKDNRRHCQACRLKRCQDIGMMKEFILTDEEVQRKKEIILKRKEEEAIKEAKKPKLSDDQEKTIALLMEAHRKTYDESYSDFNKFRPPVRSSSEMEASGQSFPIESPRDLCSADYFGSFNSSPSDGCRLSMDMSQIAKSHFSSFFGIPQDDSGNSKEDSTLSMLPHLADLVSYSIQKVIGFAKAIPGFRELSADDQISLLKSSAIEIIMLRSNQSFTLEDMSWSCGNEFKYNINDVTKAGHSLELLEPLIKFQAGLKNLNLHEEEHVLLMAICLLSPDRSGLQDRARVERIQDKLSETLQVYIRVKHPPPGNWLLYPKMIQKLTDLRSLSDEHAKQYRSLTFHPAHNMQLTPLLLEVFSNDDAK", "T1 sequence (P19793 1-462 partner)": "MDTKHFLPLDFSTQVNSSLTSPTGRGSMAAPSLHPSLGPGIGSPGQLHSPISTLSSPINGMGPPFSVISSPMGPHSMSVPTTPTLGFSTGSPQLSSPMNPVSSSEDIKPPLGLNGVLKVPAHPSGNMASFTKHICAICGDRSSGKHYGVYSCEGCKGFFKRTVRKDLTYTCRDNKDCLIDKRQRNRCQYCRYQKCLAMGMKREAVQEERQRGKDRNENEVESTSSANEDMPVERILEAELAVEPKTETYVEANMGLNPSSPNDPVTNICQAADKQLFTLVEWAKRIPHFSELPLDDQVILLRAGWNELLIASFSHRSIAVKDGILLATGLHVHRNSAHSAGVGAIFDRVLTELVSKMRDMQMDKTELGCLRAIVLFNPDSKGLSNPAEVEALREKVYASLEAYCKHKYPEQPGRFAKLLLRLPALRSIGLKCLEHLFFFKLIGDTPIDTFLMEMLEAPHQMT", "assay": "Transient transactivation assay (XREM-Luc, HepG2)", "type": "cell-based", "details": "100 μM LCA", "description": "HepG2 cells (American Type Culture Collection #HB-8065) were cultured in T75 flasks with vented caps (Corning Life Sciences, Corning, NY) using Minimum Essential Medium (MEM) with phenol red supplemented with 10% fetal bovine serum, 1 mM sodium pyruvate, and 1X MEM non-essential amino acids. Cells were maintained following standard protocols in a 5% CO2 incubator set at 37°C, and split when 80–90% confluent.\nFor the transient transactivation assays, HepG2 cells were seeded in 96-well tissue culture plates at a density of 2.5x10^4 cells per well in complete phenol red-free MEM, and allowed to recover overnight. Transfections were performed the following day using Lipofectamine 2000 (Life Technologies, Grand Island, NY) as described previously. For functional comparisons, 89.7 ng/well of full-length pSG5-VDR was co-transfected with 19.2 ng/well human XREM-Luc reporter and 4.5 ng/well of pRL-CMV as an internal luciferase control. Coregulator studies included the addition of 18.3 ng/well of human coregulators (pCDNA-RXRWT, pCDNA-RXRAF2, pSG5-SRC1, pSG5-GRIP1 or pSG5-ACTR) where indicated. […] Controls include 120 nM 1,25D3 as a positive control, and ethanol as a vehicle control. Twenty-four hours post-exposure cells were tested for luciferase activity using the Dual-Glo Luciferase Assay System (Promega Corporation, Madison, WI) according to the manufacturer’s protocols. Luciferase data were first normalized to the pRL-CMV internal luciferase control. […] To calculate the impact of coregulators on VDR transactivation, VDR response in the presence of coregulators was normalized to VDR alone. All experiments were repeated 3 times and conducted as groups of 4 replicate wells. VDR response in the absence of coregulators was analyzed using a 1-way ANOVA followed by Dunnett’s multiple comparisons test. To examine the effects of different coregulators on VDR activation, data were analyzed using a 2-way ANOVA followed by Bonferroni’s multiple comparisons test in GraphPad Prism (GraphPad Inc, San Diego, CA)."}
{"compound": "C[C@H](CCC(=O)O)[C@H]1CC[C@H]2[C@@H]3CC[C@@H]4C[C@H](O)CC[C@]4(C)[C@H]3CC[C@]12C", "note": "[LCA, 5β-cholanic acid-3α-ol]", "values": [{"measurement": "Effect of exogenous human RXRWT on VDR transactivation", "setting": "co-transfected human RXRWT, vs VDR alone", "value": "significantly enhanced transactivation"}, {"measurement": "Effect of RXRWT+SRC1 or RXRWT+GRIP1 on VDR transactivation", "setting": "not significantly different from RXRWT individually", "value": "Enhanced VDR transactivation was also observed"}]}
